{
  "source": "patent US8235110B2",
  "about": "“Preconditioning an oilfield reservoir” (Gushor Inc., priority 2006, dated 2012)",
  "key": {"[1]": {"experiment": "Heating agent in water solution in sealed pressure vessels at SAGD conditions (gas generation by decomposition)", "type": "physicochemical", "protocol": "For illustrative purposes, an experiment conducted to simulate the impact of a recovery process on selected preconditioning agents under reservoir conditions shall be described. […] In one such experiment, the preconditioning agent was citric acid which was dissolved in water to create the water solution."}, "[2]": {"conditions": "cited from earlier work"}, "[3]": {"conditions": "5 grams agent, 205° C., approx. 73 hours"}, "[4]": {"conditions": "5.0 g agent and 50 milliliters water, three days at 205° C., SAGD conditions"}},
  "data": [
    {"smiles": "O=C(O)CC(O)(CC(=O)O)C(=O)O", "note": "[Citric Acid, citric acid]", "values": [
      {"measurement": "methane in headspace gas", "setting": "[1]; [3]", "result": "approximately 1500 ppm"},
      {"measurement": "propane in headspace gas", "setting": "[1]; [3]", "result": "~300", "unit": "ppm"},
      {"measurement": "CO2 yielded in headspace", "setting": "[1]; approximately 5 grams agent (50 milliliters of 10% solution), 205° C., approx. 73 hours, approx. 990 psi", "result": "approximately 1.16 liters"},
      {"measurement": "carbon dioxide yield scaled", "setting": "[1]; from 1 cubic meter of 10% solution", "result": "23,200 liters"}
    ]},
    {"smiles": "CCCC(C)=O", "note": "[MPK, methyl propyl ketone]", "values": [
      {"measurement": "Solubility in Water at 20° C.", "setting": "[2]", "result": 31, "unit": "mg/mL"}
    ]},
    {"smiles": "O=C(O)C(=O)O", "note": "[oxalic acid dihydrate]", "values": [
      {"measurement": "carbon dioxide produced on conversion", "setting": "[1]; [4]", "result": "1.25 moles CO2/mole of oxalic acid dehydrate"},
      {"measurement": "methane produced on conversion", "setting": "[1]; [4]", "result": "0.56 moles/mole of oxalic acid dihydrate"}
    ]}
  ]
}
